The assay concerns the target T1, prostanoid EP3 receptors (Homo sapiens, UniProt P43115).
T1 sequence (P43115 1-390): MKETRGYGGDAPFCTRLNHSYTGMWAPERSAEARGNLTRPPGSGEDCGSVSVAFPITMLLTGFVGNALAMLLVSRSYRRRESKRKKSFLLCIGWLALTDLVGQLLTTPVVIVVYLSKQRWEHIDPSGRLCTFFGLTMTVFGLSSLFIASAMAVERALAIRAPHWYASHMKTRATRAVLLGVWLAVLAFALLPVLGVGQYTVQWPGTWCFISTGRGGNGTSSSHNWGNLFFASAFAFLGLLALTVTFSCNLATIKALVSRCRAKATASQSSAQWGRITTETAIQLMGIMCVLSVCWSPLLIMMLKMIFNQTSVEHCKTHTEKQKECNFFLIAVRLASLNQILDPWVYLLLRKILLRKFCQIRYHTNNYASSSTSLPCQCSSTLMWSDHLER
The assay can be described thus: binding on prostanoid EP3 receptors (method of Abramovitz et al.). The conditions noted are these: read-out: Activity (EP3 receptor binding, IC50 class). The method, then:
The compounds of the invention were assayed for their binding on prostanoid EP3 receptors according to the method of Abramovitz et al. [Bioch. Biophys.
One may read the IC50 as the concentration that gives 50% inhibition. On to `CC12CCCC(C=CC(=O)NS(=O)(=O)c3cc(F)c(F)cc3F)=C1N(Cc1ccc(F)cc1)C(=O)C2` (centres unmarked) [Compound P300], for which the IC50 was less than 1 µM.
Take `Cn1cc(C=CC(=O)NS(=O)(=O)c2cc(F)c(F)cc2F)c2c(Oc3ccc(F)cc3Cl)cccc21` [Compound P340]: the IC50 was less than 1 µM.
Take `O=C(CCc1cccc2ccn(Cc3ccc4ccccc4c3)c12)NS(=O)(=O)c1cccs1` [Compound P074]: the IC50 was less than 1 µM.
The same measure for `Cc1noc(C)c1Cn1cc(C)c2cc(F)cc(C=CC(=O)NS(=O)(=O)c3cc(F)c(F)cc3F)c21` [Compound P370]: less than 1 µM; for `Cc1cn(Cc2ccc(Cl)cc2)c2c(/C=C/C(=O)NS(=O)(=O)c3cc(Cl)c(Cl)s3)cccc12` [Compound P137]: less than 1 µM.
Under `Cc1cn(Cc2ccccc2)c2c(/C=C/C(=O)NS(=O)(=O)c3cccs3)cccc12` [Compound P084] stands less than 1 µM; under `Cc1cn(CCC(=O)NS(=O)(=O)c2cccc(Cl)c2)c2c(Oc3ccc4ccccc4c3)cc(F)cc12` [Compound P381], less than 1 µM.
Take `O=C(C=Cc1cccc2c1N(Cc1ccc3ccccc3c1)C(=O)C2(F)F)NS(=O)(=O)c1cccs1` [Compound P218]: the IC50 is less than 1 µM.
Regarding `CCOP(=O)(NC(=O)OCc1cccc2ccn(Cc3ccc4ccccc4c3)c12)OCC` [Compound P044], the IC50 is 1 to 10 µM.
Consider `O=C(COc1cccc2oc(=O)n(Cc3ccc(Cl)cc3Cl)c12)NS(=O)(=O)c1cccs1` [Compound P052], for which the IC50 is less than 1 µM.
With `O=Cc1cn(Cc2ccc(Cl)cc2Cl)c2c(C=CC(=O)NS(=O)(=O)c3cc(Cl)c(Cl)s3)cc(F)cc12` [Compound P396], the IC50 was less than 1 µM.
As to `O=C(C=Cc1cccc2c1N(Cc1ccc(Cl)cc1Cl)C(=O)C2(F)F)NS(=O)(=O)c1cccs1` [Compound P216], the IC50 was less than 1 µM.
For `Cn1cc(C=CC(=O)NS(=O)(=O)c2ccc(Cl)cc2)c2c(Oc3ccc4ccccc4c3)cccc21` [Compound P365], the IC50 was less than 1 µM.
The same measure for `O=C(C=Cc1cccc2c1N(Cc1ccc3ccccc3c1)C(=O)C2(O)C(F)(F)F)NS(=O)(=O)c1cccs1` (centres unmarked) [Compound P104]: less than 1 µM.
On to `CC1C(=O)N(Cc2ccc3ccccc3c2)c2c(C=CC(=O)NS(=O)(=O)c3cc(Cl)c(Cl)s3)cccc21` (centres unmarked) [Compound P112], for which the IC50 was less than 1 µM.
Turning to `O=C(COc1cccc2[nH]cc(Sc3nc4ccccc4o3)c12)NS(=O)(=O)c1cc(Cl)c(Cl)s1` [Compound P181], the IC50 is less than 1 µM.
The same measure for `Cn1cc(C=CC(=O)NS(=O)(=O)c2cc(Cl)c(Cl)s2)c2c(Oc3cccc(Cl)c3Cl)cccc21` [Compound P291]: less than 1 µM; for `CC(C)(C)OC(=O)N1CCCc2cccc(OCC(=O)NS(=O)(=O)c3cccs3)c21` [Compound P273]: less than 1 µM; for `Cc1cn(Cc2ccccc2C#N)c2c(/C=C/C(=O)NS(=O)(=O)c3cc(Cl)c(Cl)s3)cc(F)cc12` [Compound P389]: less than 1 µM.
The same measure for `Cc1cn(Cc2ccc(F)cc2)c2c(C=CC(=O)NS(=O)(=O)c3cc(F)cc(F)c3)cc(F)cc12` [Compound P316]: less than 1 µM.
Under `O=C(COc1cccc2[nH]cc(Sc3ccc(Cl)cc3Cl)c12)NS(=O)(=O)c1cc(Cl)c(Cl)s1` [Compound P205] stands less than 1 µM; under `CC1(Br)C(=O)N(Cc2ccc3ccccc3c2)c2c(C=CC(=O)NS(=O)(=O)c3cccs3)cccc21` (centres unmarked) [Compound P110], less than 1 µM.
`O=Cc1cn(Cc2ccc(Cl)cc2Cl)c2c(C=CC(=O)NS(=O)(=O)c3cccs3)cccc12` [Compound P069]: the IC50 was less than 1 µM.
For the compound `Cn1cc(C=CC(=O)NS(=O)(=O)c2cc(Cl)c(Cl)s2)c2c(Oc3ccc(F)cc3Cl)cccc21` [Compound P342], the IC50 was less than 1 µM.
The same measure for `Cn1cc(C=CC(=O)NS(=O)(=O)c2cccc(F)c2)c2c(Oc3ccc4ccccc4c3)cccc21` [Compound P363]: less than 1 µM; for `Cn1cc(C=CC(=O)NS(=O)(=O)c2ccccc2F)c2c(Oc3ccc4ccccc4c3)cccc21` [Compound P364]: less than 1 µM; for `Cc1cn(Cc2cc(F)cc(F)c2)c2c(/C=C/C(=O)NS(=O)(=O)c3cccs3)cccc12` [Compound P088]: less than 1 µM.
In the case of `Cn1cc(C=CC(=O)NS(=O)(=O)c2ccc(F)c(F)c2)c2c(Oc3ccc4ncccc4c3)cccc21` [Compound P376], the IC50 was less than 1 µM.
Consider `Cc1cn(Cc2cn3ccccc3n2)c2c(C=CC(=O)NS(=O)(=O)c3cc(Cl)cc(Cl)c3)cc(F)cc12` [Compound P408], for which the IC50 is less than 1 µM.
Turning to `Cn1cc(C=CC(=O)NS(=O)(=O)c2cc(Cl)c(Cl)s2)c2c(Oc3ccc(F)c(Cl)c3)cccc21` [Compound P330], the IC50 was less than 1 µM.
As for `Cc1ccc(C)c(CN2C(=O)COc3cccc(OCC(=O)NS(=O)(=O)c4cccs4)c32)c1` [Compound P021], the IC50 fell in the range of 1 to 10 µM.
The same measure for `Cn1cc(C=CC(=O)NS(=O)(=O)c2cc(F)c(F)cc2F)c2c(Oc3ccc(Cl)c(Cl)c3)cccc21` [Compound P292]: less than 1 µM.
On to `COc1cc(Cn2cc(C)c3cc(F)cc(C=CC(=O)NS(=O)(=O)c4cc(F)c(F)cc4F)c32)cc(OC)c1` [Compound P375], for which the IC50 is less than 1 µM.
As to `CC1(O)C(=O)N(Cc2ccc3ccccc3c2)c2c(C=CC(=O)NS(=O)(=O)c3cccs3)cccc21` (centres unmarked) [Compound P111], the concentration for half-maximal inhibition (IC50) is less than 1 µM.
The same measure for `COc1ccccc1Sc1c[nH]c2cccc(OCC(=O)NS(=O)(=O)c3cc(Cl)c(Cl)s3)c12` [Compound P212]: less than 1 µM; for `Cc1cn(Cc2cc3c(cc2Cl)OCO3)c2c(/C=C/C(=O)NS(=O)(=O)c3cccs3)cccc12` [Compound P089]: less than 1 µM; for `CC12CCCC(C=CC(=O)NS(=O)(=O)c3cc(Cl)cc(Cl)c3)=C1N(Cc1ccc(F)c(F)c1)C(=O)C2` (centres unmarked) [Compound P266]: less than 1 µM.
Under `Cc1cn(Cc2cc(F)cc3c2OCOC3)c2c(/C=C/C(=O)NS(=O)(=O)c3cccs3)cccc12` [Compound P102] stands less than 1 µM.
In the case of `Cn1nnnc1S(=O)(=O)c1c[nH]c2cccc(OCC(=O)NS(=O)(=O)c3cc(Cl)c(Cl)s3)c12` [Compound P239], the IC50 is less than 1 µM.
Under `COc1ccc(S(=O)(=O)c2c[nH]c3cccc(OCC(=O)NS(=O)(=O)c4cc(Cl)c(Cl)s4)c23)cc1OC` [Compound P170] stands less than 1 µM.
Under `CC12CCCC(C=CC(=O)NS(=O)(=O)c3cc(Cl)c(Cl)s3)=C1N(Cc1cccc(Cl)c1)C(=O)C2` (centres unmarked) [Compound P285] stands less than 1 µM.
The same measure for `O=C(COc1cccc2c1N(Cc1ccc(Cl)c(Cl)c1)C(=O)CO2)NS(=O)(=O)c1cccs1` [Compound P039]: less than 1 µM; for `Cn1nc(NS(=O)(=O)c2cc(Cl)c(Cl)s2)c2c(Oc3ccc4ccccc4c3)cccc21` [Compound P284, 4,5-Dichloro-thiophene-2-sulfonic acid [1-methyl-4-(naphthalen-2-yloxy)-1H-indazol-3-yl]-amide]: 1 to 10 µM.
With `Cn1cc(CCC(=O)NS(=O)(=O)c2ccc(F)c(F)c2)c2c(Oc3ccc4ccccc4c3)cccc21` [Compound P362], the IC50 is less than 1 µM.
As to `Cn1cc(Oc2ccc3ccccc3c2)c2c(C=CC(=O)NS(=O)(=O)c3cc(Cl)c(Cl)s3)cccc21` [Compound P277], the IC50 is less than 1 µM.
Under `O=C(COc1cccc2[nH]cc(S(=O)(=O)c3ccc4ccccc4c3)c12)NS(=O)(=O)c1cc(F)c(F)cc1F` [Compound P237] stands less than 1 µM.
Under `Cc1cn(CCC(=O)NS(=O)(=O)c2ccc(F)c(F)c2)c2c(Oc3ccc(Cl)cc3Cl)cc(F)cc12` [Compound P383] stands less than 1 µM; under `O=C(COc1cccc2c1N(Cc1ccc(OC(F)(F)F)cc1)C(=O)CO2)NS(=O)(=O)c1cccs1` [Compound P027], 1 to 10 µM.
Take `CC12CCCC(C=CC(=O)NS(=O)(=O)c3cc(F)cc(F)c3)=C1N(Cc1ccc(F)c(F)c1)C(=O)C2` (centres unmarked) [Compound P305]: the IC50 is less than 1 µM.
With `Cc1ccc(C)c(Cn2cc(C)c3cccc(/C=C/C(=O)NS(=O)(=O)c4cc(Cl)c(Cl)s4)c32)c1` [Compound P138], the IC50 was less than 1 µM.
Under `O=C(COc1cccc2oc(=O)n(Cc3ccc4c(c3)OCO4)c12)NS(=O)(=O)c1cccs1` [Compound P050] stands 1 to 10 µM; under `O=C(COc1cccc2[nH]cc(Sc3nc4ccccc4s3)c12)NS(=O)(=O)c1cc(Cl)c(Cl)s1` [Compound P182], less than 1 µM; under `Cc1ccc(C)c(Cn2ccc3cccc(C=CC(=O)NS(=O)(=O)c4cccs4)c32)c1` [Compound P008], less than 1 µM.
Under `CC12CCCC(C=CC(=O)NS(=O)(=O)c3ccc(F)cc3)=C1N(Cc1ccc(Cl)cc1Cl)C(=O)C2` (centres unmarked) [Compound P274] stands less than 1 µM.
The same measure for `CC1C(=O)N(Cc2ccc3ccccc3c2)c2c(C=CC(=O)NS(=O)(=O)c3cccs3)cc(F)cc21` (centres unmarked) [Compound P066]: less than 1 µM; for `O=C(COc1cccc2oc(=O)n(Cc3ccc4ccccc4c3)c12)NS(=O)(=O)C(F)(F)F` [Compound P048]: 1 to 10 µM; for `Cc1cn(Cc2ccc(Cl)cc2Cl)c2c(C=CC(=O)NS(=O)(=O)c3ccc(F)c(F)c3)cc(F)cc12` [Compound P335]: less than 1 µM.
In the case of `Cn1cc(/C=C/C(=O)NS(=O)(=O)c2ccc(F)c(F)c2)c2c(Oc3ccc4ccccc4c3)cccc21` [Compound P334], the IC50 is less than 1 µM.
The same measure for `Cc1cn(Cc2ccc(F)cc2)c2c(C=CC(=O)NS(=O)(=O)c3ccc(F)c(F)c3)cc(F)cc12` [Compound P314]: less than 1 µM.

The values are drawn from patent US7598397B2, “Sulfonamide peri-substituted bicyclics for occlusive artery disease” (deCODE genetics ehf, priority 2004, dated 2009).
